Source: US9212168B2 (priority 2011, dated 2015)

System: HCV genotype 1a replicon
Assay: HCV genotype 1a replicon assay (NS3 protease activity readout)
Assay type: cell-based, hepatitis C virus
Details: HCV genotype 1a replicon
Summary of the method: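 EC50 values came from a 4-parameter robust fit of fluorescence (ex 340, em 509 nm) produced by NS3-specific protease in lysates, assayed with 15 μM FRET substrate for 20 min at 37° C, after 48 or 72 hours of compound exposure (0.5% DMSO) of Huh7.5-derived APC89 genotype 1a replicon cells.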

Compound	Genotype 1a
COC(=O)N[C@H](C(=O)N1C[C@@H](OC)C[C@H]1c1nc(-c2ccc(-c3cc(Cl)c(NC(=O)c4ccc(N5CCN(C(=O)C(C)(C)C(=O)O)C[C@H]5C)nc4)cc3OC(F)(F)F)cc2)c[nH]1)C1CCOCC1 [Example 28-23]	C (C represents pEC50 between and 9 and about 10, (EC50 between 1 nM and 0.1 nM))
COC(=O)N[C@H](C(=O)N1C[C@@H](C)C[C@H]1c1nc(-c2ccc(-c3ccc(NC(=O)c4ccc(N5CCN(C(=O)[C@H]6CC6(C)C)C[C@H]5C)nc4)cc3OC(F)(F)F)cc2)c[nH]1)C(C)C [Example 1-74]	D (D represents pEC50>10 (EC50<0.1 nM))
CC[C@H](C)C(=O)N1CCN(c2ccc(C(=O)Nc3cc(OC(F)(F)F)c(-c4ccc(-c5c[nH]c([C@@H]6C[C@H](C)CN6C(=O)[C@@H](NC(=O)OC)C(C)C)n5)cc4)cc3Cl)cn2)[C@H](C)C1 [Example 1-69]	D (D represents pEC50>10 (EC50<0.1 nM))
COC(=O)NC(C(=O)N1C[C@@H](C)C[C@H]1c1nc(-c2ccc(-c3cc(Cl)c(C(=O)Nc4ccc(N5CCN(C(=O)C(C)(C)C)C[C@H]5C)nc4)cc3OC(F)(F)F)cc2)c[nH]1)C1C[C@@H](C)O[C@@H](C)C1 (some centres unmarked) [Example 23-1]	A (A represents a pEC50 value between 6 and 8 (EC50 between 1 μM and 10 nM))
COC(=O)N[C@H](C(=O)N1C[C@@H](C)C[C@H]1c1nc(-c2ccc(-c3cc(F)c(NC(=O)c4ccc(N5CCN(C(=O)C(C)(C)C)C[C@H]5C)nc4)cc3C(F)(F)F)cc2)c[nH]1)C(C)C [Example 1-58]	D (D represents pEC50>10 (EC50<0.1 nM))
CCCCOC(=O)N[C@H](C(=O)N1C[C@@H](C)C[C@H]1c1nc(-c2ccc(-c3cc(Cl)c(NC(=O)c4ccc(N5C[C@H](C)N(C(=O)NC)C[C@H]5C)nc4)cc3OC(F)(F)F)cc2)c[nH]1)C(C)C [Example 7-4]	B (B represents pEC50 between 8 and 9 (EC50 between 1 and 10 nM))
COC(=O)N[C@H](C(=O)N1C[C@@H](C)C[C@H]1c1nc(-c2ccc(-c3cc(Cl)c(NC(=O)c4ccc(N5CCN(C(=O)C6CCC6C)C[C@H]5C)nc4)cc3OC(F)(F)F)cc2)c[nH]1)C(C)C (some centres unmarked) [Example 1-91]	D (D represents pEC50>10 (EC50<0.1 nM))
COC(=O)N[C@H](C(=O)N1C[C@@H](C)C[C@H]1c1nc(-c2ccc(-c3cc(Cl)c(NC(=O)c4ccc(N5C[C@H](C)N(C(=O)[C@H]6CCCN6C(=O)OC)C[C@H]5C)nc4)cc3OC(F)(F)F)cc2)c[nH]1)C(C)C [Example 1-46]	D (D represents pEC50>10 (EC50<0.1 nM))
COC(=O)N[C@H](C(=O)N1C[C@@H](C)C[C@H]1c1nc(-c2ccc(-c3cc(Cl)c(C(=O)Nc4ccc(N5CCN(C(=O)C(C)(C)C)C[C@@H]5C)nc4)cc3OC(F)(F)F)cc2)c[nH]1)C1CCOCC1 [24-2]	C (C represents pEC50 between and 9 and about 10, (EC50 between 1 nM and 0.1 nM))
COC[C@H]1C[C@@H](c2nc(-c3ccc(-c4ccc(C(=O)Nc5ccc(N6CCN(C(=O)C(C)(C)C)C[C@H]6C)nc5)c(Cl)c4OC(F)(F)F)cc3)c[nH]2)N(C(=O)[C@@H](NC(=O)OC)C(C)C)C1 [Example 25-7]	B (B represents pEC50 between 8 and 9 (EC50 between 1 and 10 nM))
COC(=O)NC(C(=O)N1CC(C)CC1c1nc(-c2ccc(-c3ccc(NC(=O)c4ccc(N5CCN(C(=O)C(C)(C)CO)CC5C)nc4)cc3OC(F)(F)F)cc2)c[nH]1)C1CCOCC1 (centres unmarked) [Example 13-32]	D (D represents pEC50>10 (EC50<0.1 nM))
COC(=O)N[C@H](C(=O)N1C[C@@H](OC)C[C@H]1c1nc(-c2ccc(-c3cc(Cl)c(NC(=O)c4ccc(N5C[C@H](C)N(C(=O)NC(C)(C)C)C[C@H]5C)nc4)cc3OC(F)(F)F)cc2)c[nH]1)C1CCOCC1 [Example 28-9]	D (D represents pEC50>10 (EC50<0.1 nM))
CCC(=O)N1CCC[C@@H]1C(=O)N1CCN(c2ccc(C(=O)Nc3cc(OC(F)(F)F)c(-c4ccc(-c5c[nH]c([C@@H]6C[C@H](C)CN6C(=O)[C@@H](NC(=O)OC)C(C)C)n5)cc4)cc3Cl)cn2)[C@H](C)C1 [Example 1-48]	D (D represents pEC50>10 (EC50<0.1 nM))
COC(=O)NC(C(=O)N1CC(OC)CC1c1nc(-c2ccc(-c3ccc(NC(=O)c4ccc(N5CCN(C(=O)C(C)(C)C)CC5C)nc4)cc3OC(F)(F)F)cc2)c[nH]1)C(C)(C)O (centres unmarked) [Example 16-18]	D (D represents pEC50>10 (EC50<0.1 nM))
COC(=O)N[C@H](C(=O)N1C[C@@H](C)C[C@H]1c1nc(-c2ccc(-c3cc(F)c(NC(=O)c4ccc(N5CCN(C(=O)C6CC67CC7)C[C@H]5C)nc4)cc3F)cc2)c[nH]1)C(C)C (some centres unmarked) [Example 1-90]	C (C represents pEC50 between and 9 and about 10, (EC50 between 1 nM and 0.1 nM))
[2H]C([2H])([2H])C1(C([2H])([2H])[2H])CC1C(=O)N1CCN(c2ccc(C(=O)Nc3cc(Cl)c(-c4ccc(-c5c[nH]c([C@@H]6C[C@H](C)CN6C(=O)[C@@H](NC(=O)OC)C(C)C)n5)cc4)cc3F)cn2)[C@H](C)C1 (some centres unmarked) [Example 1-100]	D (D represents pEC50>10 (EC50<0.1 nM))
CNC(=O)N1CCC[C@@H]1C(=O)N1C[C@@H](C)N(c2ccc(C(=O)Nc3cc(OC(F)(F)F)c(-c4ccc(-c5c[nH]c([C@@H]6C[C@H](C)CN6C(=O)[C@@H](NC(=O)OC)C(C)C)n5)cc4)cc3Cl)cn2)C[C@@H]1C [Example 1-44]	D (D represents pEC50>10 (EC50<0.1 nM))
CNC(=O)N1C[C@@H](C)N(c2ccc(C(=O)Nc3cc(OC(F)(F)F)c(-c4ccc(-c5c[nH]c([C@@H]6C[C@H](C)CN6C(=O)[C@@H](NC(=O)OC)C(C)(C)C)n5)cc4)cc3Cl)cn2)C[C@@H]1C [Example 7-1]	D (D represents pEC50>10 (EC50<0.1 nM))
COC(=O)N[C@H](C(=O)N1C[C@@H](OC)C[C@H]1c1nc(-c2ccc(-c3cc(Cl)c(NC(=O)c4ccc(N5CCN(C(=O)C(C)(C)C)C[C@H]5C)nc4)cc3C(F)(F)F)cc2)c[nH]1)C1CCOCC1 [Example 19-16]	D (D represents pEC50>10 (EC50<0.1 nM))

Same assay, conditions: Hepatitis C virus, read-out: Genotype 1a, HCV genotype 1a replicon

Compound	EC50 [pM]
CCN(CC)C(C(=O)N1C[C@@H](C)C[C@H]1c1nc(-c2ccc(-c3cc(Cl)c(NC(=O)c4ccc(N5C[C@H](C)N(C(=O)NC)C[C@H]5C)nc4)cc3OC(F)(F)F)cc2)c[nH]1)c1ccccc1 (some centres unmarked) [Example 7-12]	< 100
COC(=O)N[C@H](C(=O)N1C[C@@H](C)C[C@H]1c1nc(-c2ccc(-c3cc(Cl)c(NC(=O)c4ccc(N5CCN(C(=O)C(C)(C)CNC(C)=O)C[C@H]5C)nc4)cc3OC(F)(F)F)cc2)c[nH]1)C(C)C [Example 12-42]	< 100
COC(=O)N[C@H](C(=O)N1C[C@@H](C)C[C@H]1c1nc(-c2ccc(-c3cc(Cl)c(NC(=O)c4ccc(N5CCN(C(=O)C(C)(C)C)C[C@H]5C)nc4)cc3OC(F)(F)F)cc2)c(CO)[nH]1)C(C)C [Example 5-12]	< 100
COCC(=O)N1CCC[C@@]1(C)C(=O)N1CCN(c2ccc(C(=O)Nc3ccc(-c4ccc(-c5c[nH]c([C@@H]6CC7(CN6C(=O)[C@@H](NC(=O)OC)C(C)C)OCCO7)n5)cc4)c(OC(F)(F)F)c3)cn2)[C@H](C)C1 [Example 5-2]	< 100
COC(=O)N[C@H](C(=O)N1C[C@@H](N2CCOCC2)C[C@H]1c1nc(-c2ccc(-c3cc(Cl)c(NC(=O)c4ccc(N5CCN(C(=O)C(C)(C)C)C[C@H]5C)nc4)cc3OC(F)(F)F)cc2)c[nH]1)C(C)C [Example 15-5]	< 100
COC(=O)N1CCN(C(C(=O)N2C[C@@H](C)C[C@H]2c2nc(-c3ccc(-c4cc(Cl)c(NC(=O)c5ccc(N6CCN(C(=O)C(C)(C)C)C[C@H]6C)nc5)cc4OC(F)(F)F)cc3)c[nH]2)c2ccccc2)CC1 (some centres unmarked) [Example 13-4]	100 to 1000
COC(=O)N[C@H](C(=O)N1C[C@@H](N(C)C)C[C@H]1c1nc(-c2ccc(-c3ccc(C(=O)Nc4ccc(N5CCN(C(=O)N(C)C)C[C@H]5C)nc4)cc3OC(F)(F)F)cc2)c(Cl)[nH]1)C(C)C [Example 10-4]	100 to 1000
COC(=O)N[C@H](C(=O)N1C[C@@H](C)C[C@H]1c1nc(-c2ccc(-c3cc(Cl)c(NC(=O)c4ccc(N5CCN(C(=O)C6(N)CC6(C)C)C[C@H]5C)nc4)cc3OC(F)(F)F)cc2)c[nH]1)C(C)C (some centres unmarked) [Example 12-9]	< 100
COC(=O)N[C@H](C(=O)N1C[C@H](C)C[C@H]1c1nc(-c2ccc(-c3cc(Cl)c(C(=O)Nc4ccc(N5CCN(C(=O)C(C)(C)C)C[C@H]5C)nc4)cc3OC(F)(F)F)cc2)c[nH]1)C(C)C [Example 6-26]	1000 to 10000
CCO[C@H]1C[C@@H](c2nc(-c3ccc(-c4cc(Cl)c(C(=O)Nc5ccc(N6CCN(C(=O)C(C)(C)C)C[C@H]6C)nc5)cc4OC(F)(F)F)cc3)c[nH]2)N(C(=O)[C@@H](NC(=O)OC)C(C)C)C1 [Example 6-27]	100 to 1000
COC(=O)N[C@H](C(=O)N1C[C@@H](OC)C[C@H]1c1nc(-c2ccc(-c3cc(Cl)c(NC(=O)c4ccc(N5CCN(C(=O)C(C)(C)CO)C[C@H]5C)nc4)cc3OC(F)(F)F)cc2)c(CO)[nH]1)C(C)C [Example 5-17]	< 100
COC(=O)N[C@H](C(=O)N1[C@@H]2C[C@@H]2C[C@H]1c1nc(-c2ccc(-c3cc(Cl)c(NC(=O)c4ccc(N5CCN(C(=O)C6CC67CC7)C[C@H]5C)nc4)cc3C(F)(F)F)cc2)c[nH]1)C(C)C (some centres unmarked) [Example 8-6]	100 to 1000
COC(=O)N[C@H](C(=O)N1[C@@H]2C[C@@H]2C[C@H]1c1nc(-c2ccc(-c3cc(Cl)c(NC(=O)c4ccc(N5CCN(C(=O)C(C)(C)C)C[C@H]5C)nc4)cc3C(F)(F)F)cc2)c[nH]1)C(C)C [Example 8-5]	100 to 1000
COC(=O)N[C@H](C(=O)N1C[C@@H](C)C[C@H]1c1nc(-c2ccc(-c3cc(Cl)c(NC(=O)c4ccc(N5CCN(C(=O)C(C)(C)CNC(=O)C(C)(C)C)C[C@H]5C)nc4)cc3OC(F)(F)F)cc2)c[nH]1)C(C)C [Example 12-38]	100 to 1000
COC(=O)N[C@H](C(=O)N1C[C@@H](C)C[C@H]1c1nc(-c2ccc(-c3cc(Cl)c(NC(=O)c4ccc(N5CCN(C(=O)C(C)(C)C)C[C@H]5C)nc4)cc3OC(F)(F)F)cc2)c[nH]1)[C@H](C)O [Example 13-6]	< 100
COC(=O)N[C@H](C(=O)N1C[C@@H](C)C[C@H]1c1nc(-c2ccc(-c3cc(Cl)c(NC(=O)c4ccc(N5CCN(C(=O)C(C)(C)C)C[C@H]5C)nc4)cc3OC(F)(F)F)cc2)c[nH]1)C1CCCC1 [Example 13-41]	< 100
